Measured values: patent US20090062255A1, “TUMOR-TARGETING EVALUATION METHODOLOGY AND COMPOUNDS RELATED THERETO” (THALLION PHARMACEUTICALS INC., priority 2007, published 2009)

Legend:
human MAPK1 (ERK1) = molecular target: T1, human MAPK1 (ERK1) (Homo sapiens, UniProt P27361); test: Upstate Kinase Profiler, MAPK1 (ERK1); type: biochemical
T1 construct: purchased Upstate (Kinase Profiler Service; Dundee, UK)
Protocol: Unlike current Ras signalling pathway inhibitors, ECO-4601 is not a direct kinase inhibitor. This was documented by evaluating the effect of ECO-4601 on human EGFR, c-RAF, MEK1, MAPK1 (ERK1) and MAPK2 (ERK2) kinase-activity (Upstate Kinase Profiler™ Service; Dundee, UK). ECO-4601 was tested at 0.5 μM and 5 μM in a final volume of 25 μL according to standard protocols developed by Upstate Ltd. Briefly, purified recombinant human enzymes were incubated with 25 mM Tris pH 7.5 containing EGTA, a specific substrate and γ-^32P-ATP. The reaction was initiated with MgATP mix and incubated for 40 minutes at RT. The reaction was stopped by the addition of 5 μL of a 3% phosphoric acid solution; aliquots were spotted on filters and counted. Detailed procedures are available on the Millipore Upstate website.

[1] = test system: phosphorylation of Raf-1 and ERK1/2 (Ras-MAPK signaling pathway); test: Western blot of EGF-induced Raf-1 and ERK1/2 phosphorylation in tumor cells; type: cell-based, human; settings: 10 μM
Protocol: The effect of ECO-4601 on downstream events of Ras signaling was subsequently examined by monitoring the phosphorylation levels of Raf-1 and ERK1/2 by Western blot analysis. To study the effect of ECO-4601 on the Ras-MAPK signaling pathway, exponentially growing cells (human breast MCF-7 tumor cells, human breast MDA-MB-231 tumor cells, human glioma U 87-MG tumor cells and human prostate PC-3 tumor cells) were seeded onto 60 mm tissue culture dishes (0.5 to 0.8×10^6 cells per dish) for 24 h. The media was removed and cells were treated with 10 μM ECO-4601 in culture medium supplemented with 0.1% FBS for 30 min, 1 h, 4 h and 6 h, and subsequently exposed to EGF at 50 ng/mL for 10 min at 37° C. Control plates consisted of cells incubated in culture medium containing 0.1% FBS and 0.05% DMSO (vehicle) with or without EGF stimulation. At the end of each treatment, media was removed and cells rinsed with ice-cold PBS. Cells were then harvested by scraping and cell pellets were lysed in ice-cold RIPA buffer for 20 minutes on ice. Unsolubilized material was pelleted and discarded. The protein concentration of each lysate was quantified using the Bio-Rad protein assay (Bio-Rad Laboratories). Equivalent amounts of protein (20-30 μg protein) were separated on 10% or 12% SDS-PAGE under reducing conditions, transferred onto nitrocellulose membranes (0.2 μm; Bio-Rad Laboratories) and blotted as above with phospho-c-Raf (Ser338) and c-Raf (Cell Signaling Technology Inc., Boston, Mass.), phospho-p44/42 (Thr2O2/Tyr204, p-ERK1/2) and p44/42 (ERK1/2) MAP Kinases (Cell Signaling Technology Inc.) and GAPDH (SantaCruz Biotechnology Inc.).

T1 sequence (P27361 whole entry): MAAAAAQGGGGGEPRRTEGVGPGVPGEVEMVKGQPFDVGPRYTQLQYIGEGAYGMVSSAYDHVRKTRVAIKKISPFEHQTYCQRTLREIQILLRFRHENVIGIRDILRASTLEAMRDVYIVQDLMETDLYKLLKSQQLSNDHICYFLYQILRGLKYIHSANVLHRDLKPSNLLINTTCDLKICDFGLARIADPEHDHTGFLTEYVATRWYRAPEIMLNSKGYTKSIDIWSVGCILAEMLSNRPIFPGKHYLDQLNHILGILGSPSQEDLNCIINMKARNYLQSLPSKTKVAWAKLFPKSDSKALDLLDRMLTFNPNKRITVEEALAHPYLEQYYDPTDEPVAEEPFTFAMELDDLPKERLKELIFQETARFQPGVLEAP

## CC(C)=CCC/C(C)=C/CC/C(C)=C/CN1C(=O)c2cccc(O)c2Nc2c(O)cc(O)cc21 [Compound 1, 10-farnesyl-4,6,8-trihydroxy-5,10-dihydrodibenzo[b,e][1,4]diazepin-11-one]
Human MAPK1 (ERK1); 0.5 μM and 5 μM
  direct inhibition of ERK1 kinase activity (in words): does not directly inhibit
Human MAPK1 (ERK1); MAPK1 (ERK1), 0.5 μM, % of enzyme activity over positive control, read-out: Kinase Activity (%) ± SD
  activity at 0.5 µM: 97 ± 2%
Human MAPK1 (ERK1); MAPK1 (ERK1), 5 μM, % of enzyme activity over positive control, read-out: Kinase Activity (%) ± SD
  activity at 5 µM: 73 ± 3%
[1]
  amount of total Raf-1: decrease
  time to complete inhibition of protein phosphorylation: ≤ 6 h
[1]; MCF-7, MDA-MB-231, U 87-MG and PC-3 cells
  inhibition of EGF-induced phosphorylation of Raf-1 and ERK1/2: strong inhibition
